Measured values reported in PubChem BioAssay (NCI).
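Following 48 hours of exposure in 96-well plates, responses at five concentrations were used to interpolate endpoints linearly. GI50 marks 50% less growth. TGI: concentration producing complete growth inhibition.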

What was measured:
Experiment in all cases: inhibition of tumour cell growth, NCI panel, 48 h
NCI-H460 lung = tested on: NCI-H460 lung
NCI-H23 lung = tested on: NCI-H23 lung
MDA-MB-231 breast = tested on: MDA-MB-231 breast
K-562 leukemia = tested on: K-562 leukemia
SK-MEL-28 melanoma = tested on: SK-MEL-28 melanoma
RPMI-8226 leukemia = tested on: RPMI-8226 leukemia
SR leukemia = tested on: SR leukemia
NCI-H226 lung = tested on: NCI-H226 lung
HCT-15 colon = tested on: HCT-15 colon
T-47D breast = tested on: T-47D breast

| Compound | GI50 (NCI-H460 lung) [µM] | TGI (NCI-H460 lung) [µM] | GI50 (NCI-H23 lung) [µM] | TGI (NCI-H23 lung) [µM] | GI50 (MDA-MB-231 breast) [µM] | TGI (MDA-MB-231 breast) [µM] | GI50 (K-562 leukemia) [µM] | TGI (K-562 leukemia) [µM] | GI50 (SK-MEL-28 melanoma) [µM] | TGI (SK-MEL-28 melanoma) [µM] | GI50 (RPMI-8226 leukemia) [µM] | TGI (RPMI-8226 leukemia) [µM] | GI50 (SR leukemia) [µM] | TGI (SR leukemia) [µM] | GI50 (NCI-H226 lung) [µM] | TGI (NCI-H226 lung) [µM] | GI50 (HCT-15 colon) [µM] | TGI (HCT-15 colon) [µM] | GI50 (T-47D breast) [µM] | TGI (T-47D breast) [µM] |
| --- | --- | --- | --- | --- | --- | --- | --- | --- | --- | --- | --- | --- | --- | --- | --- | --- | --- | --- | --- | --- |
| Cc1cc(S(=O)(=O)/N=C(\N)n2nc(C)c(C)c2C)c(SCc2ccccc2)cc1Cl | 6.57 | > 100 | 7.04 | > 100 | > 100 | > 100 | 4.15 | > 100 | > 100 | > 100 | 2.9 | > 100 | > 100 | > 100 | > 100 | > 100 | 7.1 | > 100 | 3.14 | > 100 |
| COc1ccc(/C(Cl)=C(\C=O)c2cc(OC)c(OC)c(OC)c2)cc1OC |  | > 100 |  | > 100 |  | > 100 |  | > 100 |  | > 100 |  | 77 |  | > 100 |  | 70.6 |  | > 100 |  | > 100 |
| Nc1c(C(=O)Nc2cccc3ccccc23)sc2nc3c(cc12)CCCCC3 | 1.33 | > 50 | 1.78 | > 50 | 1.27 | > 50 | 0.216 | > 50 | 4.32 | > 50 | 1.16 | > 50 | 0.214 | > 50 | 7.58 | > 50 | 0.309 | > 50 | 5.94 | > 50 |
| CNC(=O)c1ccc(Nc2nc(OC3CCCC3)c3c(-c4ccc5nc(C)oc5c4)c[nH]c3n2)c(OC)c1 | 0.119 | > 100 | 4.55 | > 100 | 14 | > 100 | 0.746 | > 100 | 41.4 | > 100 | 0.481 | > 20.4 | 0.0861 | > 100 | 9.04 | > 100 | 0.0689 | > 100 | 0.907 | > 100 |
| CCCN1C(=O)/C(=C/c2ccc(O)cc2)SC1=Nc1ccccc1 | 15.2 | 29.9 | 34.1 | 93 | 16 | 36.6 | 92.1 | > 100 | 27.7 | 50.9 |  |  | 14 | > 100 | 30.3 | 54.1 | 16.9 | 37.5 | 22.5 | 50.8 |
| O=S(=O)(NCCNc1cc(-c2cn(-c3ccccc3)nc2-c2cccc(O)c2)ccn1)c1ccc(F)cc1 | 3.12 | 9.12 | 2.66 | 10.8 | 1.88 | 4.7 |  |  | 2.03 | 5.39 | 2.23 | 6.12 | 1.6 | 4.88 | 3.06 | 13.7 | 1.8 | 5.75 | 2.01 | 6.86 |
| Nc1ccn(C2OC(COP(=O)(O)O)C(O)C2O)c(=O)n1 (stereo unspecified) |  | > 27.8 |  | > 100 |  | > 100 |  | > 100 |  | > 100 |  | > 100 |  | > 44.7 |  | > 100 |  | > 100 |  | > 100 |
| C[C@@H](Oc1cc(-c2cnn(C3CC4(CCNCC4)C3)c2)cnc1N)c1c(F)ccc(Cl)c1Cl | 0.855 | 2.84 | 1.09 | 11.4 | 1.26 | 3 | 0.228 | 1.4 | 1.55 | 3.2 | 1.63 | 4.95 | 0.0467 | 1.53 | 2.51 | 17.5 | 1.38 | 3.5 | 1.58 | 3.24 |
| CCN(CC)CCCN1C(=O)c2c(c(C)c3c(oc4cc(O)ccc43)c2C)C1=O | 1.82 | 3.35 | 1.85 | 3.72 | 1.81 | 3.47 | 0.188 | 0.464 | 1.83 | 3.4 | 1.93 | 4.17 | 1.58 | 3.99 | 4.47 | 27.4 | 1.77 | 3.39 | 1.85 | 3.8 |
| COc1cc(-c2ccc(-[n+]3nc(-c4ccc([N+](=O)[O-])cc4)nn3-c3ccc([N+](=O)[O-])cc3)c(OC)c2)ccc1-[n+]1nc(-c2ccc([N+](=O)[O-])cc2)nn1-c1ccc([N+](=O)[O-])cc1 | 3.02 | 11.1 | 3.76 | 47.1 | 8.6 | 34.7 | 3.39 | > 44.6 | 18 | 64.4 | 10.1 | 67.8 | 30.4 | > 100 | 12.1 | 45.7 | 6.17 | 49.5 | 0.3 | 5.75 |
| CCOC(=O)c1ccc2[nH]c(Cc3[nH]c4ccc(C(=O)OCC)cc4c3C)c(C)c2c1 | 0.167 | 6.44 | 6.35 | 25.8 | 2.4 | 12.3 | 0.832 | 17.5 | 5.26 | 22.8 | 2.66 | 35.6 | 0.425 | 15.1 | 4.7 | 23.2 | 0.129 | 21.4 | 4.94 | 23.9 |
| CC(=O)O[C@H]1C(=O)[C@@]2(C)[C@H]([C@H](OC(=O)c3ccccc3)[C@]3(O)C[C@H](OC(=O)[C@H](OC(=O)CCC(=O)OC4CCC(S/N=C(N)/N=C(\N)N(C)C)CC4)[C@@H](NC(=O)c4ccccc4)c4ccccc4)C(C)=C1C3(C)C)[C@]1(OC(C)=O)CO[C@@H]1C[C@@H]2O (stereo partly specified) | 0.0069 | > 27.7 | 0.0166 | > 50 | 0.0249 | > 31.4 | 0.00692 | > 50 | 8.57 | > 50 | 0.00605 | > 43.5 | 0.00631 | > 50 | 23.4 | > 50 | 0.269 | > 50 | 0.0139 | > 50 |
